Results reported in US20240343704A1, “HALO-SUBSTITUTED AMINO PYRIDINE COMPOUNDS AS INHIBITORS OF THE HAEMATOPOIETIC PROGENITOR KINASE 1 (HPK1)” (priority 2021, published 2024).

Key:
[1] = target: Lck (h) (Homo sapiens, UniProt P06239); experiment: Lck Human  Kinase Enzymatic Radiometric Assay; assay type: biochemical; conditions: read-out: Lck IC50 nM Range*
Method in brief: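 Substrate 33P-incorporation measured by scintillation counting after spotting on P30 filtermat and phosphoric acid washes. Human Lck reacted 40 min at RT in 50 mM Tris pH 7.5 with 10 mM MgAcetate, [gamma-33P]-ATP, 250 uM Cdc2 peptide, 0.1 mM EGTA and 0.1 mM Na3VO4.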

[2] = target: T1, Recombinant (1-346) HPK1 (h) (Homo sapiens, UniProt Q92918); experiment: HPK1 Human STE Kinase Enzymatic Radiometric Assay; assay type: biochemical; conditions: read-out: HPK1 IC50 nM Range*
T1 construct: Recombinant (1-346) HPK1 (h) is incubated with 8 mM MOPS pH 7.0
T1 sequence (Q92918 1-346): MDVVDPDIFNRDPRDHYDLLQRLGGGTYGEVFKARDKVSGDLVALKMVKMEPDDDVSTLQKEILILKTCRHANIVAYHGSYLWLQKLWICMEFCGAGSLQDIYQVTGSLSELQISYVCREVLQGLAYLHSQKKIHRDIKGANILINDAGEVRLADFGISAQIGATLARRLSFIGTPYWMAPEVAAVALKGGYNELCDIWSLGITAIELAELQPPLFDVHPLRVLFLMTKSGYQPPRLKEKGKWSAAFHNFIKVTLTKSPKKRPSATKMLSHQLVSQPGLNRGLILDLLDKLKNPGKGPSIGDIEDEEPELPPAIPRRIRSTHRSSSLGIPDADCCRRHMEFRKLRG
Experimental: A stock solution of 10 mM of test compound is prepared in DMSO. The compound plate was prepared by 3-fold and 9-point serial dilutions. […] The reaction is initiated by The addition of the Mg/ATP mix. After incubation for 40 minutes at RT, the reaction is stopped by the addition of phosphoric acid to a concentration of 0.5%.

Lck (h), sequence (P06239 whole entry): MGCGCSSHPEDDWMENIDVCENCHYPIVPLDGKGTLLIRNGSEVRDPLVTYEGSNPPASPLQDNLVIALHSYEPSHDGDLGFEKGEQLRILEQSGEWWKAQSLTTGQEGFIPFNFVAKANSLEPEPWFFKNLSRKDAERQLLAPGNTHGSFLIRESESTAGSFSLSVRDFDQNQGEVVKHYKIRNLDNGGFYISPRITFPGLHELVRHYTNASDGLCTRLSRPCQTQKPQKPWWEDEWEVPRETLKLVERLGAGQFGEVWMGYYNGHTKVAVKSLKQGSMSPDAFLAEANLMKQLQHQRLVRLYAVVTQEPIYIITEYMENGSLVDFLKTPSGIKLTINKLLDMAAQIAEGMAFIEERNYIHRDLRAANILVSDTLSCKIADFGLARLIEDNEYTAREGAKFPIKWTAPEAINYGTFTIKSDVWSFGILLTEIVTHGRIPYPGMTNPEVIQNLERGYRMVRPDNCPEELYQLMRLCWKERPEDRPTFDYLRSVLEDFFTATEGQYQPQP

| Structure (SMILES) | IC50 [1] [nM] | IC50 [2] [nM] |
| --- | --- | --- |
| Nc1nc(F)c(-c2ccc(N3CCN(CC4CC4)CC3)cc2)cc1-c1cc2c(cn1)C(=O)NCC2 [I-400, 6-(2-amino-5-(4-(4-(cyclopropylmethyl)piper-azin-1-yl)phenyl)-6-fluoropyridin-3-yl)-3,4-dihydro-2,7-naphthyridin-1(2H)-one] | 101 to 1000 | 0.1 to 10 |
| Cc1c[nH]c(=O)c2ccc(-c3cc(-c4ccc(C5CCOCC5)c(CN(C)C)c4)c(F)nc3N)cc12 [I-426, 6-(2-amino-5-(3-((dimethylamino)methyl)-4-(tetrahydro-2H-pyran-4-yl)phenyl)-6-fluoropyridin-3-yl)-4-methylisoquinolin-1(2H)-one] | > 1000 | 0.1 to 10 |
| CN(C)Cc1nc(-c2cc(-c3cc4c(cc3F)C(=O)NCC4)c(N)nc2F)ccc1N1CCOCC1 [I-427, 6-(6′-amino-6-((dimethylamino)methyl)-2′-fluoro-5-morpholino-[2,3-bipyridin]-5′-yl)-7-fluoro-3,4-dihydroisaoquinolin-1(2H)-one] | > 1000 | 0.1 to 10 |
| CN(C)Cc1cc(-c2cc(-c3cc4c(cc3F)C(=O)NCC4)c(N)nc2F)ccc1C1CCOCC1 [I-429, 6-(2-amino-5-(3-((dimethylamino)methyl)-4-(tetrahydro-2H-pyran-4-yl)phenyl)-6-fluoropyridin-3-yl)-7-fluoro-3,4-dihydroisoquinolin-1(2H)-one] | > 1000 | 0.1 to 10 |
| Cc1cc(-c2cc(-c3ccc4c(c3)CCNC4=O)c(N)nc2F)cc2c1CCNC2 [I-431, 6-(2-amino-6-fluoro-5-(5-methyl-1,2,3,4-tetrahydroisoquinolin-7-yl)pyridin-3-yl)-3,4-dihydroisoquinolin-1(2H)-one] | > 1000 | 0.1 to 10 |
| CN(C)Cc1cc(-c2cc(-c3ccc4c(c3)CCNC4=O)c(N)nc2F)ccc1N1CCOCC1 [I-432, 6-(2-amino-5-(3-((dimethylamino)methyl)-4-morpholinophenyl)-6-fluoropyridin-3-yl)-3,4-dihydroisoquinolin-1(2H)-one] | > 1000 | 0.1 to 10 |
| Cc1cc(-c2cc(-c3ccc4c(c3)CCNC4=O)c(N)nc2F)cc2c1CCN(C)C2 [I-434, 6-(2-amino-5-(2,5-dimethyl-1,2,3,4-tetrahydroisoquinolin-7-yl)-6-fluoropyridin-3-yl)-3,4-dihydroisoquinolin-1(2H)-one] | > 1000 | 0.1 to 10 |
| CN(C)Cc1cc(-c2cc(-c3cc(F)c4c(c3)CCNC4=O)c(N)nc2F)ccc1C1CCOCC1 [I-436, 6-(2-amino-5-(3-((dimethylamino)methyl)-4-(tetrahydro-2H-pyran-4-yl)phenyl)-6-fluoropyridin-3-yl)-8-fluoro-3,4-dihydroisoquinolin-1(2H)-one] | > 1000 | 0.1 to 10 |
| Cc1nc2cc(-c3cc(-c4ccc(C5CCOCC5)c(CN(C)C)c4)c(F)nc3N)ccc2c(=O)[nH]1 [I-437, 7-(2-amino-5-(3-((dimethylamino)methyl)-4-(tetrahydro-2H-pyran-4-yl)phenyl)-6-fluoropyridin-3-yl)-2-methylquinazolin-4(3H)-one] | > 1000 | 11 to 100 |
| Nc1nc(F)c(-c2ccc(N3CCN(CCCC(F)F)CC3)cc2)cc1-c1cc(F)c2c(c1)CCNC2=O [I-440, 6-(2-amino-5-(4-(4-(4,4-difluorobutyl)piperazin-1-yl)phenyl)-6-fluoropyridin-3-yl)-8-fluoro-3,4-dihydroisoquinolin-1(2H)-one] | > 1000 | 0.1 to 10 |
| CN(C)Cc1cc(-c2cc(-c3ccc4c(c3)CCNC4=O)c(N)nc2F)ccc1N1CCN(CCCC(F)F)CC1 [I-445, 6-(2-amino-5-(4-(4-(4,4-difluorobutyl)piperazin-1-yl)-3-((dimethylamino)methyl)phenyl)-6-fluoropyridin-3-yl)-3,4-dihydroisoquinolin-1(2H)-one] | > 1000 | 0.1 to 10 |
| Cc1cc(-c2cc(-c3ccc4c(c3)CCNC4=O)c(N)nc2F)cc2c1CCN(CCCC(F)F)C2 [I-446, 6-(2-amino-5-(2-(4,4-difluorobutyl)-5-methyl-1,2,3,4-tetrahydroisoquinolin-7-yl)-6-fluoropyridin-3-yl)-3,4-dihydroisoquinolin-1(2H)-one] | > 1000 | 0.1 to 10 |

Results, then the molecule that gave them:

| IC50 [1] [nM] | IC50 [2] [nM] | Structure (SMILES) |
| --- | --- | --- |
| > 1000 | 0.1 to 10 | CC(C)N1CCN(c2ccc(-c3cc(-c4cc5cc[nH]c(=O)c5cn4)c(N)nc3F)cc2)CC1 [I-401, 6-(2-amino-6-fluoro-5-(4-(4-isopropylpiperazin-1-yl)phenyl)pyridin-3-yl)-2,7-naphthyridin-1(2H)-one] |
| > 1000 | 0.1 to 10 | CC(C)N1CCN(c2ccc(-c3cc(-c4cnc5c(=O)[nH]ccc5c4)c(N)nc3F)cc2)CC1 [I-402, 3-(2-amino-6-fluoro-5-(4-(4-isopropylpiperazin-1-yl)phenyl)pyridin-3-yl)-1,7-naphthyridin-8(7H)-one] |
| > 1000 | 0.1 to 10 | CC(C)N1CCN(c2ccc(-c3cc(-c4cc(F)c5c(=O)[nH]cnc5c4)c(N)nc3F)cc2)CC1 [I-405, 7-(2-amino-6-fluoro-5-(4-(4-isopropylpiperazin-1-y)phenyl)pyridin-3-yl)-5-fluoroquinazolin-4(3H)-one] |
| > 1000 | 0.1 to 10 | CC(C)N1CCN(c2ccc(-c3cc(-c4cc5nc[nH]c(=O)c5cc4F)c(N)nc3F)cc2)CC1 [I-406, 7-(2-amino-6-fluoro-5-(4-(4-isopropylpiperazin-1-yl)phenyl)pyridin-3-yl)-6-fluoroquinazolin-4(3H)-one] |
| > 1000 | 0.1 to 10 | Nc1nc(F)c(-c2ccc(N3CCN(CC4CC4)CC3)cc2)cc1-c1cc(F)c2c(=O)[nH]cnc2c1 [I-407, 7-(2-amino-5-(4-(4-(cyclopropylmethyl)piper-azin-1-yl)phenyl)-6-fluoropyridin-3-yl)-5-fluoroquinazolin-4(3H)-one] |
| > 1000 | 0.1 to 10 | Nc1nc(F)c(-c2ccc(N3CCN(CC4CC4)CC3)cc2)cc1-c1cc2nc[nH]c(=O)c2cc1F [I-408, 7-(2-amino-5-(4-(4-(cyclopropylmethyl)piper-azin-1-yl)phenyl)-6-fluoropyridin-3-yl)-6-fluoroquinazolin-4(3H)-one] |
| > 1000 | 0.1 to 10 | Cc1nc2cc(-c3cc(-c4ccc(N5CCN(C(C)C)CC5)cc4)c(F)nc3N)ccc2c(=O)[nH]1 [I-409, 7-(2-amino-6-fluoro-5-(4-(4-isopropylpiperazin-1-yl)phenyl)pyridin-3-yl)-2-methylquinazolin-4(3H)-one] |
| > 1000 | 11 to 100 | CNCc1nc2cc(-c3cc(-c4ccc(N5CCN(C(C)C)CC5)cc4)c(F)nc3N)ccc2c(=O)[nH]1 [I-410, 7-(2-amino-6-fluoro-5-(4-(4-isopropylpiperazin-1-yl)phenyl)pyridin-3-yl)-2-((methylamino)methyl)quin-azolin-4(3H)-one] |
| > 1000 | 11 to 100 | Cc1nc2cc(-c3cc(-c4ccc(N5CCN(CC6CC6)CC5)cc4)c(F)nc3N)ccc2c(=O)[nH]1 [I-411, 7-(2-amino-5-(4-(4-(cyclopropylmethyl)piper-azin-1-yl)phenyl)-6-fluoropyridin-3-yl)-2-methylquinazolin-4(3H)-one] |
| > 1000 | 0.1 to 10 | Cc1nc2cc(-c3cc(-c4ccc(N5CCN(C(C)C)CC5)cc4)c(F)nc3N)cc(F)c2c(=O)[nH]1 [I-414, 7-(2-amino-6-fluoro-5-(4-(4-isopropylpiperazin-1-yl)phenyl)pyridin-3-yl)-5-fluoro-2-methylquinazolin-4(3H)-one] |
| > 1000 | 0.1 to 10 | Cc1nc2cc(-c3cc(-c4ccc(N5CCN(CC6CC6)CC5)cc4)c(F)nc3N)cc(F)c2c(=O)[nH]1 [I-416, 7-(2-amino-5-(4-(4-(cyclopropylmethyl)piper-azin-1-yl)phenyl)-6-fluoropyridin-3-yl)-5-fluoro-2-methylquinazolin-4(3H)-one] |
| > 1000 | 0.1 to 10 | Cc1nc2cc(-c3cc(-c4ccc(N5CCN(CCC6CC6)CC5)cc4)c(F)nc3N)cc(F)c2c(=O)[nH]1 [I-417, 7-(2-amino-5-(4-(4-(2-cyclopropylethyl)piperazin-1-yl)phenyl)-6-fluoropyridin-3-yl)-5-fluoro-2-methylquinazolin-4(3H)-one] |
| > 1000 | 101 to 1000 | CC(C)N1CCN(c2ccc(-c3cc(-c4ccc5c(=O)[nH]c(C(F)(F)F)nc5c4)c(N)nc3F)cc2)CC1 [I-435, 7-(2-amino-6-fluoro-5-(4-(4-isopropylpiperazin-1-yl)phenyl)pyridin-3-yl)-2-(trifluoromethyl)quinazolin-4(3H)-one] |
| > 1000 | 11 to 100 | Cc1nc2cc(-c3cc(-c4ccc(N5CCN(C(C)C)CC5)cc4)c(F)nc3N)c(F)cc2c(=O)[nH]1 [I-439, 7-(2-amino-6-fluoro-5-(4-(4-isopropylpiperazin-1-yl)phenyl)pyridin-3-yl)-6-fluoro-2-methylquinazolin-4(3H)-one] |
